pIC50: −log10 of the molar value.
Experiments:
[1] = test system: human stomach cancer cell line SNU-16 (FGFR2 gene amplification); assay: SNU-16 growth inhibition assay; type: cell-based; settings: Homo sapiens, SNU-16, 72 h; cell growth, 3 days, Cell Counting Kit-8; read-out: SNU-16 (IC50 (nM))
Procedure: In this assay, the growth inhibitory activity of a test substance in a human stomach cancer cell line harboring FGFR2 gene amplification is measured.
Then, 10 μL of Cell Counting Kit-8 (Dojindo Laboratories, CK04) was added to each well, and the resultant was incubated for 1 to 2 hours in a 5% CO2 incubator (37° C.) to cause a color reaction. The absorbance value was measured with ENVISION™ (PerkinElmer Co., Ltd.) at 450 nm.

[2] = test system: normal human umbilical vein endothelial cells (HUVEC); assay: HUVEC growth inhibition assay (VEGF-induced); type: cell-based; settings: Homo sapiens, HUVEC, 72 h; growth in the presence of VEGF 10 ng/mL, 3 days; read-out: HUVEC (IC50 (nM))
Procedure: The absorbance value was measured with ENVISION™ (PerkinElmer Co., Ltd.) at 450 nm. The absorbance values of the wells without adding the test substance but with VEGF addition was defined as 100% and the absorbance values of the wells with neither the test substance nor VEGF addition was defined as 0%.

FGFR1 protein = FGFR1 protein (Homo sapiens (Human), UniProt P11362); assay: biochemical
Chain of FGFR1 protein (P11362 22-822): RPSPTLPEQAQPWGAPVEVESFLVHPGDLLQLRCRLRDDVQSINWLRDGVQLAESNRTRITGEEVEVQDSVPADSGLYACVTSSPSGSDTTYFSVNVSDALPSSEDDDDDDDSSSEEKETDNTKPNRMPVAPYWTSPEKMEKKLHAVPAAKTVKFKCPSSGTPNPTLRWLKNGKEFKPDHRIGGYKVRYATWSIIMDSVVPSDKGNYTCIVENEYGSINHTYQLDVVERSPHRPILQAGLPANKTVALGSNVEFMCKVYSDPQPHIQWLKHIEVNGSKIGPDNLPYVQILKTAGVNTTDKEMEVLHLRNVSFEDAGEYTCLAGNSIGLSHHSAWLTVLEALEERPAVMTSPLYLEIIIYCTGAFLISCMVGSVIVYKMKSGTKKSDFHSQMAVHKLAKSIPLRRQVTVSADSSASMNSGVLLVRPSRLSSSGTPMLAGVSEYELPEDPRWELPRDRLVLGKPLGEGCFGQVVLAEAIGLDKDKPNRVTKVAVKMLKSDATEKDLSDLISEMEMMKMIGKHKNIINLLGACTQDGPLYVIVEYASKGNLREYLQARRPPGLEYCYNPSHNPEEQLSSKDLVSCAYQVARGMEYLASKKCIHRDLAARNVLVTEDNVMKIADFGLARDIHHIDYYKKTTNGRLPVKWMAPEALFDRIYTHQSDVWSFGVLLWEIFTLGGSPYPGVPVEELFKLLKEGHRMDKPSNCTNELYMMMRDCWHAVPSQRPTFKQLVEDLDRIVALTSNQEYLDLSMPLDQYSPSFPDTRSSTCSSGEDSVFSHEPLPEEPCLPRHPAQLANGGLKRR

[3] = test system: human stomach cancer cell line SNU-16 xenograft; assay: Antitumor effect in SNU-16 subcutaneous xenograft model in mice; type: in vivo; settings: oral, once a day for 11 days, tumor volume last day
Source text: Human stomach cancer cell line SNU-16, which had been cultured in an RPMI-1640 medium containing 10% FBS, and penicillin and streptomycin, were adjusted to a concentration of 1×10^8 cells/mL with Hanks' Balanced Salt Solution (GIBCO #24020) to prepare a cell suspension, and the suspension was mixed with […] (BD Biosciences, Cat#354234) in a ratio of 1:1 to prepare a cell suspension in a concentration of 5×10^7 cells/ml. The cell suspension was inoculated in a volume of 100 ut into a subcutaneous part of a right flank of nude mice, 6 to 7 weeks of ages (BALB/cAiel-nu/nu, female, Clea Japan Inc.). Seven days after cell inoculation, the shortest diameter and the longest diameter of a tumor in each mouse were measured by using an electronic digital caliper (Digimatie™ caliper, Mitutoyo Corporation), so as to calculate the volume of the tumor in accordance with the following calculation formula: Tumor volume(mm^3)Longest diameter(mm)×Shortest diameter(mm)×Shortest diameter(mm)/2
(§1) On the basis of the volumes of tumors obtained on the first day of administration, the nude mice were grouped such that averages of the tumor volumes were substantially equal among the groups. Each test substance was dissolved in DMSO, Tween 80 was added thereto to prepare a solution in a 10-fold concentration and the thus prepared solution was stored at the freezer before use. Immediately before the administration, the stock solution was diluted with a 5% glucose solution to obtain a final administration solution (in which a ratio in % among DMSO, Tween 80 and the 5% glucose solution was 3.5:6.5:90). Each evaluation sample was orally administered to test substance administration group at a volume of 0.4 mL per 20 g of body weight once a day continuously for 11 days, and in a control group, an administration solvent was orally administered under the same conditions. Incidentally, the experiment was conducted on groups each consisting of 5 mice.
(§2) With respect to each of the control group and test substance administration group, a ratio of the weight measured on the final day to the weight measured on the first day (relative body weight: RBW) was calculated. If a ratio of the RBW of the test substance administration group/the RBW of the control group is 0.9 or mom, the corresponding test substance administration group was defined as a well-tolerated. In the test substance administration group thus defined as well-tolerated, a ratio of the tumor volume of the test substance-dosing group to the tumor volume of the control group obtained on the last day (TIC) (%) was calculated, and shown in Table 21.

[4] = test system: human lung cancer cell line NCI-H1581 xenograft; assay: Antitumor effect in NCI-H1581 subcutaneous xenograft model in mice; type: in vivo; settings: oral, once a day for 11 days, tumor volume last day
Procedure: Human lung cancer cell line NCI-H1581, which had been cultured in RPMI-1640 medium containing 10% FBS, and penicillin and streptomycin, were adjusted to a concentration of 1×10^8 cells/mL with Hanks' Balanced Salt Solution(GIBCO #24020) to prepare a cell suspension, and the suspension was mixed with […] in a ratio of 1:1 to prepare a cell suspension in a concentration of 5×10^7 cells/mL. The cell suspension was inoculated in a volume of 100 μL into a subcutaneous part of a right flank of each of nude mice, 6 to 7 weeks of ages (BALB/cAJcl-nu/nu, female, Clea Japan Inc.). Ten to 11 days after the cell inoculation, the shortest diameter and the longest diameter of a tumor in each mouse were measured by using an electronic digital caliper (Digimatic™ caliper, Mitutoyo Corporation), so as to calculate the volume of the tumor in accordance with the following calculation formula: Tumor volume(mm^3)=Longest diameter(mm)×Shortest diameter(mm)×Shortest diameter(mm)/2
as §1
as §2, with “more,” for “mom,”, “22.” for “21.”

Compound | IC50 [1] | IC50 [2] | pIC50 (FGFR1 protein) | T/C (%) ([3]; 6.25 mg/kg) | T/C (%) ([3]; 12.5 mg/kg) | T/C (%) ([3]; 25 mg/kg) | T/C (%) ([4]; 6.25 mg/kg) | T/C (%) ([4]; 12.5 mg/kg) | T/C (%) ([4]; 25 mg/kg) | T/C (%) ([3]; 50 mg/kg) | T/C (%) ([4]; 50 mg/kg)
CNC(=O)n1ccc2cc(Oc3ccnc(NC(=O)c4ccc(C5CCNCC5)cc4)c3)c(OC)cc21 [Example 1, 6-Methoxy-N-methyl-5-((2-(4-(piperidin-4-yl)benzamide)pyridin-4-yl)oxy)-1H-indole-1-carboxamide] | 7.5 nM | 98.7 nM | 8.01 |  |  |  |  |  |  |  | 
CCN1CCC(c2ccc(C(=O)Nc3cc(Oc4cc5ccn(C(=O)NC)c5cc4OC)ccn3)cc2)CC1 [Example 2, 5-((2-(4-(1-Ethylpiperidin-4-yl)benzamide)pyridin-4-yl)oxy)-6-methoxy-N-methyl-1H-indole-1-carboxamide] |  |  |  | 51% | 28% | 18% | 36% | 19% | 11% |  | 
CCOc1cc2c(ccn2C(=O)NC)cc1Oc1ccnc(NC(=O)c2ccc(C3CCN(CC)CC3)cc2)c1 [Example 16, 6-Ethoxy-5-((2-(4-(1-ethylpiperidin-4-yl)benzamide)pyridin-4-yl)oxy)-N-methyl-1H-indole-1-carboxamide] |  |  |  | 39% | 21% | 15% | 50% | 25% | 15% |  | 
CNC(=O)n1ccc2cc(Oc3ccnc(NC(=O)c4ccc(C5CCN(C)CC5)cc4)c3)c(OCCOC)cc21 [Example 21, 6-(2-Methoxyethoxy)-N-methyl-5-((2-(4-(1-methylpiperidin-4-yl)benzamide)pyridin-4-yl)oxy)-1H-indole-1-carboxamide] |  |  |  | 49% | 26% | 16% | 36% | 18% | 10% | 7% | 6%

Reference: patent publication US8933099B2, “Monocyclic pyridine derivative” (Eisai R&D Management Co., Ltd., priority 2013, dated 2015)
